PubChem BioAssay (NCI)
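96-well plates; 48 h exposure; 5 concentrations. Endpoints by linear interpolation between flanking doses. Not reached: highest tested concentration assigned. Here, GI50 denotes the concentration required for 50% inhibition of growth. TGI: total growth inhibition.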

Assays:
Experiment in all cases: growth of human tumour cells (NCI), 48 h
K-562 leukemia = tested on: K-562 leukemia
M14 melanoma = tested on: M14 melanoma
NCI-H23 lung = tested on: NCI-H23 lung
OVCAR-3 ovarian = tested on: OVCAR-3 ovarian
OVCAR-8 ovarian = tested on: OVCAR-8 ovarian
RXF 393 renal = tested on: RXF 393 renal
SNB-75 CNS = tested on: SNB-75 CNS
U251 CNS = tested on: U251 CNS
NCI-H226 lung = tested on: NCI-H226 lung
HOP-92 NSCLC = tested on: HOP-92 NSCLC

Compound	TGI (K-562 leukemia) [µM]	TGI (M14 melanoma) [µM]	TGI (NCI-H23 lung) [µM]	TGI (OVCAR-3 ovarian) [µM]	TGI (OVCAR-8 ovarian) [µM]	TGI (RXF 393 renal) [µM]	TGI (SNB-75 CNS) [µM]	TGI (U251 CNS) [µM]	GI50 (K-562 leukemia) [µM]	GI50 (M14 melanoma) [µM]	GI50 (NCI-H226 lung) [µM]	TGI (NCI-H226 lung) [µM]	GI50 (NCI-H23 lung) [µM]	GI50 (OVCAR-3 ovarian) [µM]	GI50 (OVCAR-8 ovarian) [µM]	GI50 (RXF 393 renal) [µM]	GI50 (SNB-75 CNS) [µM]	GI50 (U251 CNS) [µM]	GI50 (HOP-92 NSCLC) [µM]	TGI (HOP-92 NSCLC) [µM]
CC1CC2C(=O)N(c3ccccc3)C(=O)C2c2[nH]c3ccccc3c21 (stereo unspecified)	> 100	> 100	> 100	> 100	> 100	> 100	55.1	> 100	–	–	–	–	–	–	–	–	–	–	–	–
ClCc1ccc(Cn2cnc3nc(Cl)nc(Cl)c32)cc1	> 28.8	2.83	3.65	1.45	3.66	3.24	1.48	1.96	2.52	1.31	0.946	2.92	1.84	0.687	1.84	1.3	0.656	0.772	–	–
O=C(Nc1cccc(C(F)(F)F)c1)Nc1ccc(OCc2nnc(-c3ccccc3)o2)c(F)c1	47.2	62.8	24.5	17	32.1	–	5.81	19.6	5.12	7.18	10.7	52	4.49	4.23	5.19	–	0.645	3.73	1.77	5.81
Cc1ccc(S(=O)(=O)NCc2cccc([N+](=O)[O-])c2)cc1	–	> 100	> 100	> 100	> 100	> 100	> 100	> 100	–	–	–	> 100	–	–	–	–	–	–	–	> 100
CN(C)C(=O)c1cc2cnc(Nc3ccc(N4CCNCC4)cn3)nc2n1C1CCCC1	> 100	39.1	63.2	69.2	89.7	–	22	49.8	17.6	15.7	25.2	> 100	13.9	21	23.7	–	10.2	11.3	0.867	61.6
CCCCc1c2c(nc3c1CC/C(=C\c1ccccc1)C3=O)CCCC2	32.3	18.9	17.7	10.4	4.79	6.35	23	10.8	–	–	–	–	–	–	–	–	–	–	–	–
COc1ccc(S(=O)(=O)NCCCNc2nccc(-c3c(-c4ccc(F)cc4)nc4sccn34)n2)cc1	> 100	> 100	> 100	–	> 100	76.7	7.41	> 100	2.99	8.98	6.06	> 100	15.3	–	4.3	3.36	1.56	7.26	–	–
O=C(O)C12C3C4C1C1C2C3C41I (stereo unspecified)	> 100	> 100	> 100	> 100	> 100	–	> 100	> 100	–	–	–	> 100	–	–	–	–	–	–	–	> 100
CCNC(=O)O/N=C1/C=C2CC[C@@H]3C(CC[C@@]4(C)C3CC[C@@H]4OC(=O)NCC)[C@@]2(C)CC1 (stereo partly specified)	12.7	8.22	10.8	–	16.3	5.3	5.94	5.28	–	–	–	–	–	–	–	–	–	–	–	16.7
O=C1C(=O)c2c(ccc3ccccc23)-c2ccccc21	–	–	4.63	0.713	7.98	3.22	4.03	3.56	–	–	2.02	5.02	1.76	0.25	2.11	1.68	1.83	1.67	1.91	5.52
C=CCCC1(CCP(=O)(c2ccccc2)c2ccccc2)OCCO1	> 100	> 100	> 100	> 100	> 100	> 100	> 100	> 100	–	–	–	–	–	–	–	–	–	–	–	–
CC(=O)OCC1OC(OC(C)=O)C(NC#N)C(OC(C)=O)C1OC(C)=O (stereo unspecified)	> 100	> 100	> 100	> 100	> 100	> 100	> 100	> 100	–	–	–	–	–	–	–	–	–	–	–	> 100
CCOC(=O)NC/C=C/CO	> 100	> 100	–	–	> 100	> 100	> 100	> 100	–	–	–	> 100	–	–	–	–	–	–	–	–
O=C(/C=C/N1CCN(c2cccc(Cl)c2)CC1)c1ccc(Cl)cc1	> 100	42.3	> 100	73.7	> 100	> 100	–	> 100	28	19.6	–	–	39	24.1	34.5	39.1	–	42.1	15.1	57.7
COc1ccc(Cl)cc1Nc1nc(C(F)(F)F)ccc1C(=O)N/N=C/c1ccc(Cl)cc1	40.5	> 100	42	1.66	> 100	53.2	–	69.3	3.85	3.69	4.18	> 100	9.57	0.576	5.1	4.56	–	4.79	11.4	67.2
COC(=O)CCSC(=O)Nc1ccccc1Cl	> 100	> 100	> 100	> 100	> 100	–	> 100	> 100	–	–	–	> 100	–	–	–	–	–	–	–	–
CN1OC(CO)CC12C1CC3CC(C1)CC2C3 (stereo unspecified)	> 100	> 100	> 100	> 100	> 100	> 100	> 100	> 100	–	–	–	–	–	–	–	–	–	–	–	> 100
COc1cc(-c2nn(-c3cccc(NC(=O)c4cccc(C(F)(F)F)c4)c3)cc2-c2ccncc2)ccc1Cl	> 50	> 50	32.5	2.98	> 50	3.15	–	> 50	1.4	1.63	1.66	27	1.56	1.2	2	0.812	–	1.62	0.554	3.12
